Data taken from patent publication US10328114B2, “Lung injury repair compositions and methods” (University of Iowa Research Foundation, priority 2015, dated 2019).
“Also recorded” adds a separate entry of the source. Where two headings read alike, the source gives them in different places. *: point of attachment. Myristoyl = CCCCCCCCCCCCCC(=O)*

Legend:
[1] = test system: bleomycin induced lung inflammation; assay: Lung inflammation and cell death in bleomycin ALI model (BALF cell and neutrophil count, IL-1β, TUNEL); assay type: in vivo, mouse
Procedure: (§1) Animal protocols were approved by the Institutional Animal Care and Use Committee at the University of Iowa. C57BL/6 mice (Jackson Laboratories, Bar Harbor, Me.) were anesthetized followed by intratracheal instillation of: (A) Control (Ctrl): 1 μl of DMSO (Sigma, St. Louis, Mo.) plus 49 μl of PBS; (B) Bleomycin (Bleo): 1 μl of DMSO plus 49 μl of bleomycin (APP pharmaceuticals, LLC Schaumburg, Ill.) dissolved in PBS (4 U/kg); (C) Bleomycin/PKCζi (Bleo/PKCζi): 1 μg of PKCζi (Calbiochem EMD Biosciences, San Diego, Calif.) solubilized in 1 μl of DMSO plus 49 μl of bleomycin (4 U/Kg) dissolved in PBS (Calbiochem EMD Biosciences, San Diego, Calif.). After this treatment, all mice were instilled (50 μl) every 72 hours with 1 μl of DMSO plus 49 μl of PBS in the Ctrl and Bleo group or with 1 μg of PKCζi dissolved in 1 μl of DMSO plus 49 μl of PBS in the Bleo/PKCζi group for the duration of the experiment. Mice were treated for up to 6 weeks (FIG. 1A). All conditions had between 4 to 6 animals.
(§2) After dissection, immunofluorescence labeling was performed on frozen mouse lung tissue sections with polyclonal anti p-PKCζ (Santa Cruz Biotechnology, Dallas, Tex.) or monoclonal β4 antibody (Clone 346-11a, BD Biosciences, San Jose, Calif.) (23). In addition, Terminal deoxynucleotidyltransferase dUTP nick end labeling (TUNEL) staining was performed on week 1 mouse lung tissue sections (24).
(§3) Bronchoalveolar lavage was performed as previously described (18). Total cell count was examined by hemocytometer and the percent of neutrophils cells in the bronchoalveolar lavage fluid (BALF) by cytospin slides stained with Wright's-Giemsa. Total protein concentration was measured by Bradford assay (Bio-Rad, Hercules, Calif.).
Mouse IL-1β and active transforming growth factor beta (TGFβ) were measured using an ELISA from R&D Biosystems (Minneapolis, Minn.).

[2] = test system: BALF isolated cells from bleomycin treated mice; assay: ROS production (extracellular H2O2) of BALF cells, p-hydroxyphenylacetate method; assay type: in vivo, mouse; conditions: week 1 post initial instillation
Procedure: as §1
BALF cells from week 1 post initial instillation were determined by the p-hydroxyphenylacetate method as reported previously (25).

[3] = test system: bleomycin induced ALI mouse model; assay: BALF total protein concentration (alveolar-capillary permeability), Bradford assay; assay type: in vivo; conditions: week 1 post injury
Procedure: as §1, §3

DLEP integrin β4^+ cells = assay: DLEP integrin β4+ cells in mouse lungs by immunofluorescence after bleomycin injury; assay type: in vivo
Text: (§4) (8) PKC-ζi promotes proliferation of distal lung epithelial progenitor cells. Recently Chapman et al reported that integrin α6β4 identifies a population of lung cells with regenerative potential in mice (Chapman et al. (2011). “Integrin alpha6beta4 identifies an adult distal lung epithelial population with regenerative potential in mice.” J Clin Invest 121(7): 2855-2862). Furthermore, Li et al, reported same population in human lungs (Li et al. (2013). “Integrin alpha6beta4 identifies human distal lung epithelial progenitor cells with potential as a cell-based therapy for cystic fibrosis lung disease.” PLoS One 8(12): e83624). Therefore, the inventors set out to examine by immunofluorescence the presence of these cells in mouse lungs at 3 and 6 weeks after bleomycin treatment. […] In addition, the inventors isolated mouse α6β4 cells and treated them for 2 weeks with PKC-ζi ([…]).
as §1, §2

integrin β4^+ DLEP cells = assay: Isolated integrin β4+ DLEP cell colony proliferation in matrigel; assay type: cell-based, mouse; conditions: for number of β4+ colonies: PKCζi 520 nM, two weeks, media with 20% BALF from bleomycin injured mice, vs PBS and DMSO
Text: as §4
Integrin β4^+ cells were isolated using flow cytometry and were seeded in matrigel as previously described with modifications (23). Cells were grown for two weeks in the presence of PBS, DMSO (1:1000) or PKCζi (1:1000, 520 nM final concentration PKC). In order to recreate the microenvironment, the media was supplemented with 20% BALF from bleomycin treated mice from week 1 similar to previously described (4).
To test the hypothesis that PKCζ can promote proliferation of β4^+ DLEP cells, integrin β4^+ cells were isolated and the media was supplemented with BALF from bleomycin treated mice from week 1 in the presence of PBS, DMSO or […], in order to recreate the microenvironment in a similar approach as Vaughan and colleagues (4). […] As shown in FIGS. 5 C & D, PKCζi increased proliferation of DLEP integrin β4^+ cells in vitro compared to control.

mouse DLEP α6β4^+ cells = assay: Isolated DLEP α6β4+ cell colony assay (Example 3); assay type: cell-based; conditions: PKCζi 10 μM, 2 weeks, 20% BALF from week 1 bleomycin injured mice
Procedure: Isolated mouse DLEP α6β4^+ cells in the presence of 20% of BALF from week 1 mice injured with bleomycin were treated with PKCζi (10 μM) for 2 weeks. At week 3 the colonies derived from cre-GFP (lox-tm-TR/GFP) for surfactant protein C (SPC)/Tomato red with hydroxy-tamoxifen were exposed in order to trace the differentiation of β4^+ colonies into SPC^+ cells.

[4] = test system: isolated rat primary alveolar epithelial cells; conditions: hypoxia and diesel exhaust particle in vitro lung injury models, cited from earlier work

For “N-Myristoyl-Ser-Ile-Tyr-Arg-Arg-Gly-Ala-Arg-Arg-Trp-Arg-Lys-Leu-OH (Myristoyl-SIYRRGARRWRKL-OH; SMILES CCCCCCCCCCCCCC(=O)N[C@@H](CO)C(=O)N[C@H](C(=O)N[C@@H](Cc1ccc(O)cc1)C(=O)N[C@@H](CCCNC(=N)N)C(=O)N[C@@H](CCCNC(=N)N)C(=O)NCC(=O)N[C@@H](C)C(=O)N[C@@H](CCCNC(=N)N)C(=O)N[C@@H](CCCNC(=N)N)C(=O)N[C@@H](Cc1c[nH]c2ccccc12)C(=O)N[C@@H](CCCNC(=N)N)C(=O)N[C@@H](CCCCN)C(=O)N[C@@H](CC(C)C)C(=O)O)[C@@H](C)CC) [PKCζi]”, the “bleomycin induced inflammatory response” value ([1]; Example 1) was “did not prevent increase in inflammatory response”, the “apoptotic cells by TUNEL+ staining” value ([1]; week 1 lung sections) was “did not prevent the increase in apoptotic cells by TUNEL^+ staining” and the BALF cell count ([1]; week 1 post injury) was “neither prevented the increase in BALF cell and neutrophil count”. The “BALF neutrophil concentration / count” value ([1]; week 1 post injury) was “neither prevented the increase in BALF cell and neutrophil count; also recorded: does not decrease bleomycin induced increase in the BALF neutrophil concentration”, the “IL-1β in BALF” value ([1]; week 1 post injury) was “nor prevented the increase in IL-1β concentration; also recorded: does not decrease IL-1β release into BALF” and the “ROS production / extracellular hydrogen peroxide (H2O2) of BALF cells” value [2] was “does not reduce extracellular hydrogen peroxide (H2O2) in BALF isolated cells from bleomycin treated mice lung”. For the same substance, the “ROS production / extracellular hydrogen peroxide (H2O2) of BALF cells” value ([2]; listed as PKC-ζi) was “did not prevent ROS production in bleomycin treated mice”, the BALF protein concentration [3] was “prevented the increase in mice BALF protein concentration compared to bleomycin group; also recorded: prevents increase in BALF protein concentration in bleomycin treated mice” and the BALF protein concentration ([3]; listed as PKC-ζ inhibitor) was “prevents increased protein content in BAL in bleomycin induced ALI”. The “number of lung DLEP integrin β4+ (α6β4) cells” value (“number … (α6β4) cells” below) (DLEP integrin β4^+ cells; week 3 after bleomycin) was “an increase in DLEP integrin β4^+ cells in the PKCζi treated mice at week 3”, the “number … (α6β4) cells” value (DLEP integrin β4^+ cells; week 3 after bleomycin, listed as PKC-ζi) was “an increase trend in α6β44 in the PKC-ζi treated mice” and the “number … (α6β4) cells” value (DLEP integrin β4^+ cells; week 6 after bleomycin) was “became statistically significant at week 6; also recorded: increased number of lung DLEP integrin β4^+ cells compared to bleomycin group at week 6”. For the same substance, the “number … (α6β4) cells” value (DLEP integrin β4^+ cells; week 6 after bleomycin, listed as PKC-ζi) was “became significant at 6 weeks”, the “number of isolated mouse α6β4 cells” value (integrin β4^+ DLEP cells; Example 1, treated for 2 weeks, concentration not given, vs DMSO) was “increased the number of α6β4 cells compared to DMSO treated cells” and the “number of β4+ colonies” value (integrin β4^+ DLEP cells) was “increased number of large colonies compared to either DMSO or the PBS group”. For the same substance, the “number of β4+ colonies” value (integrin β4^+ DLEP cells; listed as PKC-ζi) was “increased the number of β4^+ colonies compared to PBS and DMSO at week 2”, the “number of α6β4+ colonies” value (mouse DLEP α6β4^+ cells) was “increased the number of α6β4^+ colonies compared to control; also recorded: promotes proliferation DLEP α6β4^+ cells in vitro” and the “alveolar epithelial barrier integrity” value [4] was “prevents the disruption of the epithelial barrier in isolated rat primary alveolar epithelial cells”. The “alveolar epithelial barrier integrity” value ([4]; listed as PKC-ζ inhibitor) was “preserves the alveolar epithelial barrier”.
